Experimental data taken from patent US4059692A, “Treating impaired consciousness with glutamyl-L-histidyl-L-prolinamide” (Takeda Chemical Industries, Ltd., priority 1975, dated 1977).
Structures can show the parent of a compound that is named as a salt.

Test system: human patient with impaired consciousness due to functional or organic damage of the brain
Test: Clinical administration of TRH tartrate to human patients with impaired consciousness (case reports 1-8)
Type: in vivo
Conditions: for motor/behavioural recovery: 200 μg free TRH i.m. daily
From the text: The method of the present invention is applicable to human patients with impaired consciousness due to functional or organic damage to the brain, such as cranial trauma, brain surgery, cerebrovascular disorder, brain tumors and the like.
According to the present invention, TRH may be employed as the free base or in the form of a physiologically acceptable salt such as an acid addition salt e.g. a mineral acid salt (hydrochloride, sulphate, etc.) or an organic acid salt (acetate, tartrate, etc.). TRH tartrate is especially convenient for the administration. TRH or its salts are generally administered by the parenteral routes such as intravenous or intramuscular routes to the patients. The therapeutic dosage depends upon the route and upon the severity of impaired consciousness in each patient, and it may generally be chosen from within the range of from about 100 to about 5,000 μg. in terms of free TRH per adult human patient per day, more particularly from about 500 to about 5,000 μg. in terms of free TRH per adult human patient per day, when parenterally e.g. intravenously or intramuscularly administered. In case of those patients having swallowing capacity TRH or its salts may be orally administered. In this case, the dosage may be of course chosen from within the abovementioned range, but it may be increased over the said range, for example, up to about 150 mg. in terms of free TRH per adult human patient per day.
Child: Postoperative state of haematoma of right frontal lobe caused by cranial trauma.
Before administration, the patient was able to respond to only painful stimuli with a verbal expression of pain, otherwise being unconcious with a slight palpebral opening. Such conscious state lasted without modification for a further 10 days. The daily intramuscular injection of 292 μg. of TRH tartrate (dissolved in 0.8 ml of a sterile physiological saline; 200 μg. in terms of free TRH) successively for 10 days.
person: Postoperative state of metastatic brain tumor on right frontal and pariental lobes.
Craniotomy performed for the reduction of the intracranial pressure was followed by the gradual deterioration of consciousness. Therefore, TRH tartrate in the daily dose of 730 μg. (dissolved in 20 ml of 20% glucose; 500 μg. in terms of free TRH) was administered by intravenous drip infusion of 13 days.
Child: Brain contusion due to cranial trauma.
The child suffered from bodily contusion and loss of consciousness by collision on their bicycle with a train. At the time of hospitalization, the bilateral facilitation of the knee-jerk reflex was associated with the positive Babinski's reflex bilaterally. The daily administration of 730 μg.
Person: Post-operative state of glioblastoma.
The surgical resection of glioblastoma by cranitomy was gradually followed by a worsening of the general condition associated with impaired consciousness for 3 months.
person: Traumatic protracted coma.
The patient had been thrown from a motor bike and disturbance of consciousness had become apparent immediately after the accident. There was movement of the extremities and grimacing of the face in response to pain stimulus. The disturbance of consciousness continued thereafter and the disturbance had become fixed for 2 years prior to medication with TRH. TRH tartrate in the daily dose of 7,300 μg. (dissolved in 200 ml of electrolyte solution; 5,000 μg. in terms of free TRH) was administered by intravenous drip infusion. […] They also began to answer friends vocally with "Ah", "Ah". […] The medication was terminated at the 10th day.
person: Aneurysm of left cerebral artery.
After an attack of subarachnoid hemorrhage, it was noted that they had lost accessibility with people around them and volition, and that they had been in an abstract state. This condition had lasted for 1 month. TRH tartrate in the daily dose of 3,650 μg. […]

[1] = Case 3, 500 μg free TRH i.v. drip daily for 10 days

With `NC(=O)[C@@H]1CCCN1C(=O)[C@H](Cc1cnc[nH]1)NC(=O)[C@@H]1CCC(=O)N1` [TRH tartrate] the “state of consciousness (response to interview)” value (Case 1: postoperative haematoma of right frontal lobe, 292 μg TRH tartrate (200 μg free TRH) intramuscular daily for 10 days, 5th day of treatment) was “prompt verbal reply with a smile to the interview by the doctor”, the motor/behavioural recovery (Case 1, 7th day) was “able to ride and sit by themself on a wheel-chair” and the motor/behavioural recovery (Case 1, 8th day (the next day)) was “able to go to a stool with support”. The “motor/behavioural recovery and conversation” value (Case 1, one day after termination of the 10-day daily administration) was “able to sit by themself on the bed and to have a conversation with others”, the conscious state (Case 2: postoperative metastatic brain tumor, 730 μg TRH tartrate (500 μg free TRH) intravenous drip infusion daily, 13 days, 2nd day) was “significant improvement of the conscious state” and the orientation ability (Case 2, 500 μg free TRH i.v. drip daily, 2nd day) was “improvement of orientation ability”. For the same compound, the “persistence of improved conscious state” value (Case 2, after termination of the TRH treatment) was “persist for about one month after the termination of the TRH treatment”, the “Babinski's reflex” value (Case 3: brain contusion, 730 μg TRH tartrate (500 μg free TRH) i.v. drip daily for 10 days, 2nd day) was “sluggish appearance of Babinski's reflex” and the impaired consciousness [1] was “began to be improved from the 4th day”. The impaired orientation [1] was “markedly improved”, the “Babinski's reflex” value (Case 3, 500 μg free TRH i.v. drip daily, 3rd day) was “disappearance on the 3rd day” and the final outcome (Case 3, after treatment) was “recovered without any neurological abnormality”. For the same compound, the motor recovery (Case 3, one day after termination of the daily administration) was “able to walk”, the “palpebral opening and eyeball movement” value (Case 4: post-operative glioblastoma, 1,460 μg TRH tartrate (1,000 μg free TRH) i.v. drip daily for 10 days) was “prolonged the time-length of the palpebral opening from the 4th day” and the consciousness (Case 4, 1,000 μg free TRH i.v. drip daily for 10 days) was “remarkable improvement of the consciousness”. For the same compound, the “response to vocal questioning” value (Case 5: traumatic protracted coma fixed for 2 years, 7,300 μg TRH tartrate (5,000 μg free TRH) i.v. drip daily, two days after start) was “began to respond with a sound to vocal questioning and turn the eyes towards the questioner”, the side effects (Case 5, 5,000 μg free TRH i.v. drip daily, 10 days treatment period) was “No side effects were observed” and the level of consciousness (Case 5, 5,000 μg free TRH i.v. drip daily, from about the fifth day) was “definite improvement in the level of consciousness”. For the same compound, the abstract state (Case 6: aneurysm of left cerebral artery, subarachnoid hemorrhage, 3,650 μg TRH tartrate (2,500 μg free TRH) i.v. drip daily for 10 days, third day) was “abstract state disappeared”, the side effects (Case 6, 2,500 μg free TRH i.v. drip daily for 10 days) was “No noteworthy side effects were observed” and the state of consciousness (Case 6, 2,500 μg free TRH i.v. drip daily, seventh day) was “restored close to normal”. The “behavior and spontaneous activity” value (Case 7: sequelae of head trauma, 8.76 mg TRH tartrate (6 mg free TRH) orally daily for 2 weeks, from the third day) was “normalization of behavior and spontaneous activity”, the side effects (Case 7, 6 mg free TRH orally daily for 2 weeks) was “No side effects were noted” and the conversation with people (Case 7, 6 mg free TRH orally daily, after 1 week) was “began to actively converse with people around them”. For the same compound, the “persistence of improvement in level of consciousness” value (Case 7, after medication was terminated at 2 weeks) was “improvement in the level of consciousness was retained”, the “spontaneous activity / volition” value (Case 8: sequelae of head trauma, 17.52 mg TRH tartrate (12 mg free TRH) orally daily, after 2 weeks) was “began to actively watch television or play the pinball machine” and the agnosia and disorientation (Case 8, 12 mg free TRH orally daily, after 2 weeks) was “little change in the agnosia and disorientation”. The side effects (Case 8, 12 mg free TRH orally daily, during and after termination of medication) was “No side effects have been observed” and the “condition after termination of medication” value (Case 8, medication terminated after 2 weeks, after 3 months) was “no marked change in the condition of the patient”.

`NC(=O)[C@@H]1CCCN1C(=O)[C@H](Cc1c[nH]cn1)NC(=O)[C@@H]1CCC(=O)N1` [TRH, L-pyroglutamyl-L-histidyl-L-prolinamide] was tested, and the “impaired consciousness (overall)” value (Case 5, 5,000 μg (free TRH) per day, case had not responded to conventional treatment) was “significant improvement of impaired consciousness”.
